Consider 39 compounds from article PMC11855827, “High-Throughput Screening of Five Compound Libraries for Anthelmintic Activity and Toxicity Leads to the Discovery of Two Flavonoid Compounds” (International Journal of Molecular Sciences, 2025).

Like-named read-outs stand apart in the source and are kept apart here. *1 amine or outer side, *2 acyl side, *3 side chain or, on linkers, in order; H or OH if unused. Where a SMILES comes first, the peptide text is derived from it. Bridges are numbered along the chain shown (N, C = ends). [ ]: non-standard residue; d: D form. The star is where a group is joined. pTerphenylCO(4''-OnC5H11) = CCCCCOc1ccc(-c2ccc(-c3ccc(C(=O)*)cc3)cc2)cc1; Orn(4R-OH,5R-OH) = O=C([C@H](C[C@@H](O)[C@@H](O)N[*:3])N[*:1])[*:2]; hTyr(3S-OH,4S-OH) = N[C@H](C(=O)O)[C@H](O)[C@@H](O)c1ccc(O)cc1; Pro(3S-OH,4S-Me) = C[C@H]1CN[C@H](C(=O)O)[C@H]1O; Hyp = O=C(O)[C@@H]1C[C@@H](O)CN1

The test system of this experiment is C. elegans. Put plainly: microbe, parasite or virus in culture. Particulars: Caenorhabditis elegans.
The mark [1] stands for this setting: 0 h, read-out: Percentage of motility inhibition 0 h, Table S2, C. elegans SS assay, 110 μM, 0 h, averages of 4 data points.
Setting [2] is: 24 h, read-out: Percentage of motility inhibition 24 h, Table S2, C. elegans SS assay, 110 μM, 24 h, averages of 4 data points.
[3] abbreviates: 0 h, read-out: Percentage of motility inhibition 0 h.
The mark [4] stands for this setting: 24 h, read-out: Percentage of motility inhibition 24 h.

For `CCCCCOc1ccc(-c2ccc(-c3ccc(C(=O)N[C@H]4C[C@@H](O)[C@@H](O)NC(=O)[C@@H]5[C@@H](O)[C@@H](C)CN5C(=O)[C@H]([C@@H](C)O)NC(=O)[C@H]([C@H](O)[C@@H](O)c5ccc(O)cc5)NC(=O)[C@@H]5C[C@@H](O)CN5C(=O)[C@H]([C@@H](C)O)NC4=O)cc3)cc2)cc1` [Anidulafungin] ({pTerphenylCO(4''-OnC5H11)}-[Orn(4R-OH,5R-OH)]T[Hyp][hTyr(3S-OH,4S-OH)]T[Pro(3S-OH,4S-Me)]; lactam 1-C), the inhibition (as a rule, the drop in the measured response relative to a control, in per cent) at 110 µM was determined as 54% under setting [1] and 61% under setting [2].
As for `C[C@@H]1C[C@@H](O)[C@@]2(O)[C@@]13C[C@@H](OC(=O)[C@H]3O)[C@](C)(O)[C@@]21COC1=O` [Anisatin], the inhibition at 110 µM by setting is: under setting [1], 0%; under setting [2], 20%.
As for `O=c1cc(-c2ccc(O)cc2)oc2cc(O)cc(O)c12` [Apigenin], the inhibition at 110 µM is, setting by setting: under setting [1], 12%; under setting [2], 3%.
For `O=c1cc(-c2ccc(O)cc2)oc2cc(O[C@@H]3O[C@H](CO)[C@@H](O)[C@H](O)[C@H]3O[C@@H]3OC[C@](O)(CO)[C@H]3O)cc(O)c12` [Apiin] the same measures were 24% and 0%.
Consider `Cn1c(Cc2ccccc2)nc(=O)c2ccccc21` [Arborine], for which the inhibition at 110 µM by setting is: under setting [1], 0%; under setting [2], 4%.
For `OC[C@H]1O[C@@H](Oc2ccc(O)cc2)[C@H](O)[C@@H](O)[C@@H]1O` [Arbutin] the same measures were 0% and 1%.
The like results for `C[C@@H]1O[C@@H](O[C@H]2[C@H](O[C@H]3CO[C@@H](O[C@H]4CC[C@]5(C)[C@H]6CC[C@]78OC[C@@]9(CC[C@](C)(C=O)C[C@H]97)[C@H](O)C[C@@]8(C)[C@]6(C)CC[C@H]5C4(C)C)[C@H](O[C@@H]4O[C@H](CO)[C@@H](O)[C@H](O)[C@H]4O)[C@H]3O)O[C@H](CO)[C@@H](O)[C@@H]2O)[C@H](O)[C@H](O)[C@H]1O` [Ardisiacrispin B] were, in that order, 16% and 0%.
With `CC1(C)CC[C@]2(C(=O)O)CC[C@]3(C)C(=CC[C@@H]4[C@@]5(C)C[C@@H](O)[C@H](O)[C@@](C)(CO)[C@@H]5CC[C@]43C)[C@@H]2[C@@H]1O` [Arjungenin], the inhibition at 110 µM under setting [1] is 0% and the inhibition at 110 µM under setting [2] came out at 36%.
As to `C=C1C(=O)O[C@@]23[C@H]1CC[C@@H](C)[C@@H]2CC[C@@]1(C)O[C@@H]31` [Arteannuin B], the inhibition at 110 µM under setting [1] was 13% and the inhibition at 110 µM under setting [2] was determined as 11%.
For the compound `C=C1C(=O)O[C@@H]2O[C@@]3(C)CC[C@H]4[C@H](C)CC[C@@H]1[C@@]24OO3` [Artemisitene], the inhibition at 110 µM reads like this: under setting [1], 0%; under setting [2], 9%.
On to `CC[C@@H]1/C=C(\C)C[C@H](C)C[C@H](OC)[C@H]2O[C@@](O)(C(=O)C(=O)N3CCCC[C@H]3C(=O)O[C@H](/C(C)=C/[C@@H]3CC[C@@H](O)[C@H](OC)C3)[C@H](C)[C@@H](O)CC1=O)[C@H](C)C[C@@H]2OC` [Ascomycin], for which the inhibition at 110 µM is, setting by setting: under setting [1], 6%; under setting [2], 0%.
For the compound `C[C@H]1[C@H](C)CC[C@]2(C(=O)O)CC[C@]3(C)C(=CC[C@@H]4[C@@]5(C)C[C@@H](O)[C@H](O)[C@@](C)(CO)[C@@H]5CC[C@]43C)[C@H]12` [Asiatic acid], the inhibition at 110 µM under setting [1] is 41% and the inhibition at 110 µM under setting [2] came to 55%.
For `C[C@@H]1O[C@@H](O[C@H]2[C@H](O)[C@@H](O)[C@H](OC[C@H]3O[C@@H](OC(=O)[C@]45CCC(C)(C)C[C@H]4C4=CC[C@@H]6[C@@]7(C)C[C@@H](O)[C@H](O)[C@@](C)(CO)[C@@H]7[C@H](O)C[C@@]6(C)[C@]4(C)CC5)[C@H](O)[C@@H](O)[C@@H]3O)O[C@@H]2CO)[C@H](O)[C@H](O)[C@H]1O` [Asiaticoside B], the inhibition at 110 µM under setting [1] was determined as 0% and the inhibition at 110 µM under setting [2] stood at 5%.
`CC(=O)OCC1=C[C@@H]2OC(=O)C3=CO[C@@H](O[C@@H]4O[C@H](CO)[C@@H](O)[C@H](O)[C@H]4O)[C@H]1[C@@H]32` [Asperuloside]: the inhibition at 110 µM runs as follows: under setting [1], 0%; under setting [2], 5%.
`CC(=O)OCC1=C[C@H](O)[C@@H]2C(C(=O)O)=CO[C@@H](O[C@@H]3O[C@H](CO)[C@@H](O)[C@H](O)[C@H]3O)[C@H]12` [Asperulosidic Acid]: the inhibition at 110 µM under setting [1] was 2% and the inhibition at 110 µM under setting [2] turned out to be 0%.
Consider `C[C@@H]1O[C@@H](O[C@H]2C(=O)c3c(O)cc(O)cc3O[C@@H]2c2ccc(O)c(O)c2)[C@H](O)[C@H](O)[C@H]1O` [Astilbin], for which the inhibition at 110 µM by setting is: under setting [3], 31%; under setting [4], 0%.
Regarding `O=c1c(O[C@@H]2O[C@H](CO)[C@@H](O)[C@H](O)[C@H]2O)c(-c2ccc(O)cc2)oc2cc(O)cc(O)c12` [Astragalin], the inhibition at 110 µM reads like this: under setting [1], 1%; under setting [2], 1%.
Take `O=C1C(O)=C([C@H]2CC[C@H](c3ccc(Cl)cc3)CC2)C(=O)c2ccccc21` [Atovaquone]: the inhibition at 110 µM by setting is: under setting [1], 18%; under setting [2], 2%.
Turning to `C=C1CCC[C@]2(C)C[C@]3(O)OC(=O)C(C)=C3C[C@@H]12` [Atractylenolide III], the inhibition at 110 µM under setting [1] amounted to 3% and the inhibition at 110 µM under setting [2] was 6%.
Take `C=C1CCC[C@]2(C)C[C@@H]3OC(=O)C(C)=C3C[C@@H]12` [Atractylenolide II]: the inhibition at 110 µM was found to be 10% under setting [1] and 2% under setting [2].
As for `OCC1=C[C@@H](O)[C@@H]2C=CO[C@@H](O[C@@H]3O[C@H](CO)[C@@H](O)[C@H](O)[C@H]3O)[C@H]12` [Aucubin], the inhibition at 110 µM stood at 10% under setting [1] and 19% under setting [2].
`O=c1c(O[C@@H]2O[C@@H](CO)[C@H](O)[C@H]2O)c(-c2ccc(O)c(O)c2)oc2cc(O)cc(O)c12` [Avicularin]: the inhibition at 110 µM runs as follows: under setting [1], 33%; under setting [2], 21%.
For `COc1cc(O)c2c(=O)c(OC)c(-c3ccc(OC)c(O)c3)oc2c1` [Ayanin], the inhibition at 110 µM is, setting by setting: under setting [3], 0%; under setting [4], 22%.
Turning to `C/C=C(\C)C(=O)O[C@H]1C[C@@H](OC(C)=O)[C@@]2(C(=O)OC)CO[C@H]3[C@@H](O)[C@@](C)([C@]45O[C@@]4(C)[C@H]4C[C@@H]5O[C@@H]5OC=C[C@@]54O)[C@H]4[C@]1(CO[C@]4(O)C(=O)OC)[C@@H]32` [Azadirachtin], the inhibition at 110 µM by setting is: under setting [1], 24%; under setting [2], 4%.
For `O=C(O)CCCCCCCC(=O)O` [Azelaic acid] the same measures were 0% and 0%.
Take `CC[C@H]1OC(=O)[C@H](C)[C@@H](O[C@H]2C[C@@](C)(OC)[C@@H](O)[C@H](C)O2)[C@H](C)[C@@H](O[C@@H]2O[C@H](C)C[C@H](N(C)C)[C@H]2O)[C@](C)(O)C[C@@H](C)CN(C)[C@H](C)[C@@H](O)[C@]1(C)O` [Azithromycin]: the inhibition at 110 µM came to 23% under setting [1] and 37% under setting [2].
Take `Cn1c(N2CCCCS2(=O)=O)nc(C(=O)NCc2ccc(F)cc2)c(O)c1=O` [BMS‐707035]: the inhibition at 110 µM under setting [1] is 0% and the inhibition at 110 µM under setting [2] worked out at 1%.
On to `C[C@H]1COC2(CCN(c3nc(=O)c4cc(C(F)(F)F)cc([N+](=O)[O-])c4s3)CC2)O1` [BTZ043], for which the inhibition at 110 µM runs as follows: under setting [1], 0%; under setting [2], 5%.
`CC(=O)O[C@H]1C(=O)[C@@]2(C)[C@H]([C@H](OC(=O)c3ccccc3)[C@]3(O)C[C@H](O)C(C)=C1C3(C)C)[C@]1(OC(C)=O)CO[C@@H]1C[C@@H]2O` [Baccatin III]: the inhibition at 110 µM reads like this: under setting [1], 0%; under setting [2], 0%.
Take `CC(C)=C[C@H]1C[C@](C)(O)[C@@H]2[C@H]3CC[C@@H]4[C@@]5(C)CC[C@H](O[C@@H]6O[C@H](CO)[C@@H](O)[C@H](O[C@@H]7O[C@H](CO)[C@@H](O)[C@H](O)[C@H]7O)[C@H]6O[C@@H]6O[C@@H](CO)[C@H](O)[C@H]6O)C(C)(C)[C@@H]5CC[C@@]4(C)[C@@]34CO[C@@]2(C4)O1` [Bacoside A3]: the inhibition at 110 µM is 3% under setting [1] and 0% under setting [2].
With `CNC1CCCN(c2c(F)cc3c(=O)c(C(=O)O)cn(C4CC4)c3c2OC)C1` (stereo not drawn) [Balofloxacin], the inhibition at 110 µM reads like this: under setting [1], 0%; under setting [2], 20%.
For `COC(=O)C1=CO[C@@H](O[C@@H]2O[C@H](CO)[C@@H](O)[C@H](O)[C@H]2O)[C@H]2[C@@H]1[C@H](O)C[C@]2(C)OC(C)=O` [Barlerin] the same measures were 12% and 26%.
The like results for `CC(C)=CCc1cc2c(cc1O)O[C@H](c1ccc(O)cc1)CC2=O` [Bavachin] were, in that order, 27% and 24%.
For `NC[C@H]1O[C@H](O[C@H]2[C@H](O)[C@@H](O[C@H]3O[C@H](CO)[C@@H](O)[C@H](N)[C@H]3O)[C@H](N)C[C@@H]2N)[C@H](N)[C@@H](O)[C@@H]1O` [Bekanamycin] the same measures were 23% and 10%.
On to `O=C(O)c1ccccc1` [Benzoic acid], for which the inhibition at 110 µM stood at 3% under setting [3] and 6% under setting [4].
Turning to `C[C@@]12C[C@@]3(O)O[C@@H](O1)[C@]1(COC(=O)c4ccccc4)[C@H]3C[C@@]12O[C@@H]1O[C@H](COC(=O)c2ccccc2)[C@@H](O)[C@H](O)[C@H]1O` [Benzoylpaeoniflorin], the inhibition at 110 µM turned out to be 10% under setting [1] and 0% under setting [2].
Take `OCc1ccccc1` [Benzyl alcohol]: the inhibition at 110 µM reads like this: under setting [1], 2%; under setting [2], 4%.
As for `O=C(OCc1ccccc1)c1ccccc1` [Benzyl benzoate], the inhibition at 110 µM under setting [1] stood at 35% and the inhibition at 110 µM under setting [2] worked out at 36%.
The like results for `COc1c(O)cc2c(c1O)[C@@H]1O[C@H](CO)[C@@H](O)[C@H](O)[C@H]1OC2=O` [Bergenin] were, in that order, 21% and 10%.
